Test results as given in patent US11311520B2, “Substituted dihydroimidazopyridinediones as MKNK1 and MKNK2 inhibitors” (Bayer Pharma Aktiengesellschaft, priority 2017, dated 2022).

molecular target: human full-length MKNK1 (Homo sapiens (Human), UniProt Q9BUB5, T344D); assay: MKNK1 kinase high ATP assay (TR-FRET); type: biochemical; settings: 2 mM ATP, 15 min preincubation with enzyme, GST-MKNK1 (T344D)
In short: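 GST-tagged full-length human MKNK1 (1-424, T344D, baculovirus-expressed) preincubated 15 min at 22 °C with compound, then reacted 30 min at 22 °C with 2 mM ATP and 0.06 μM biotinylated peptide (final) in HEPES pH 7.5. Phospho-substrate by TR-FRET (665/622 nm ratio), normalised to no-inhibitor and no-enzyme controls.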

human full-length MKNK1, sequence (Q9BUB5 other isoform, or with tags, fused parts or gaps T344D): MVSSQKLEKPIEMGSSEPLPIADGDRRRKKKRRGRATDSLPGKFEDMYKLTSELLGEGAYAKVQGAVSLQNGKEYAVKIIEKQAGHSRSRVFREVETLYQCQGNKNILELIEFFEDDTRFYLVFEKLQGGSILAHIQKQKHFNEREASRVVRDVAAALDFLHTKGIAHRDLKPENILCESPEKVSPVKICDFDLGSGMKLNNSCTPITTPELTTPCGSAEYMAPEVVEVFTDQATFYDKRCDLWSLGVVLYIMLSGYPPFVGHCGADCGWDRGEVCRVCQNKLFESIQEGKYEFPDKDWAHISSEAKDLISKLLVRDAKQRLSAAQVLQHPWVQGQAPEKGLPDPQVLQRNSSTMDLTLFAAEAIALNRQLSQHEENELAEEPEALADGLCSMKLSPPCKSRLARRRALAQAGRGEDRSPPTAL

SMILES | IC50 [nM]
Cc1cc(Nc2ncnc3sc(C(N)=O)cc23)c(=O)n2c1C(=O)NC21CCCCC1 [Example 97, 4-[(8′-Methyl-1′,5′-dioxo-1′,5′-dihydro-2′H-spiro[cyclohexane-1,3′-imidazo[1,5-a]pyridin]-6′-yl)amino]thieno[2,3-d]pyrimidine-6-carboxamide] | 5.1
Cc1cc(Nc2ncnc3ccc(Cl)cc23)c(=O)n2c1C(=O)NC21CCCC1 [Example 98, 6′-[(6-Chloroquinazolin-4-yl)amino]-8′-methyl-2′H-spiro[cyclopentane-1,3′-imidazo[1,5-a]pyridine]-1′,5′-dione] | 7.6
Cc1cc(Nc2ncnc3ccc(Cl)cc23)c(=O)n2c1C(=O)NC21CCC(F)(F)CC1 [Example 99, 6′-[(6-chloroquinazolin-4-yl)amino]-4,4-difluoro-8′-methyl-2′H-spiro[cyclohexane-1,3′-imidazo[1,5-a]pyridine]-1′,5′-dione] | 18.8
Cc1cc(Nc2ncnc3scnc23)c(=O)n2c1C(=O)NC21CCCC1 [Example 100, 8′-Methyl-6′-([1,3]thiazolo[5,4-d]pyrimidin-7-ylamino)-2′H-spiro[cyclopentane-1,3′-imidazo[1,5-a]pyridine]-1′,5′-dione] | 70.5
Cc1cc(Nc2ncnc3scnc23)c(=O)n2c1C(=O)NC21CCC(F)(F)CC1 [Example 101, 4,4-Difluoro-8′-methyl-6′-([1,3]thiazolo[5,4-d]pyrimidin-7-ylamino)-2′H-spiro[cyclohexane-1,3′-imidazo[1,5-a]pyridine]-1′,5′-dione] | 187
Cc1cc(Nc2ncnc3sc(C(N)=O)cc23)c(=O)n2c1C(=O)NC21CCCC1 [Example 102, 4-[(8′-Methyl-1′,5′-dioxo-1′,5′-dihydro-2′H-spiro[cyclopentane-1,3′-imidazo[1,5-a]pyridin]-6′-yl)amino]thieno[2,3-d]pyrimidine-6-carboxamide] | 5.7
Cc1cc(Nc2ncnc3c2CN(C(=O)OC(C)(C)C)C3)c(=O)n2c1C(=O)NC21CCCC1 [Example 103, tert-Butyl 4-[(8′-methyl-1′,5′-dioxo-1′,5′-dihydro-2′H-spiro[cyclopentane-1,3′-imidazo[1,5-a]pyridin]-6′-yl)amino]-5,7-dihydro-6H-pyrrolo[3,4-d]pyrimidine-6-carboxylate] | 4.7
Cc1cc(Nc2ncnc3c2CN(C(=O)OC(C)(C)C)C3)c(=O)n2c1C(=O)NC21CCC(F)(F)CC1 [Example 104, tert-Butyl 4-[(4,4-difluoro-8′-methyl-1′,5′-dioxo-1′,5′-dihydro-2′H-spiro[cyclohexane-1,3′-imidazo[1,5-a]pyridin]-6′-yl)amino]-5,7-dihydro-6H-pyrrolo[3,4-d]pyrimidine-6-carboxylate] | 30.2
Cc1cc(Nc2ncnc3[nH]ncc23)c(=O)n2c1C(=O)NC21CCC(F)(F)CC1 [Example 105, 4,4-Difluoro-8′-methyl-6′-(1H-pyrazolo[3,4-d]pyrimidin-4-ylamino)-2′H-spiro[cyclohexane-1,3′-imidazo[1,5-a]pyridine]-1′,5′-dione] | 8.3
Cc1cc(Nc2ncnc3[nH]cnc23)c(=O)n2c1C(=O)NC21CCC(F)(F)CC1 [Example 106, 4,4-Difluoro-8′-methyl-6′-(9H-purin-6-ylamino)-2′H-spiro[cyclohexane-1,3′-imidazo[1,5-a]pyridine]-1′,5′-dione] | 3.5
Cc1cc(Nc2ncnc3sc(C(N)=O)c(C)c23)c(=O)n2c1C(=O)NC21CCCC1 [Example 107, 5-Methyl-4-[(8′-methyl-1′,5′-dioxo-1′,5′-dihydro-2′H-spiro[cyclopentane-1,3′-imidazo[1,5-a]pyridin]-6′-yl)amino]thieno[2,3-d]pyrimidine-6-carboxamide] | 111
Cc1cc(Nc2ncnc3cc(Cl)ccc23)c(=O)n2c1C(=O)NC21CCCCC1 [Example 108, 6′-[(7-Chloroquinazolin-4-yl)amino]-8′-methyl-2′H-spiro[cyclohexane-1,3′-imidazo[1,5-a]pyridine]-1′,5′-dione] | 16.5
Cc1cc(Nc2ncnc3cccc(Cl)c23)c(=O)n2c1C(=O)NC21CCCCC1 [Example 109, 6′-[(5-Chloroquinazolin-4-yl)amino]-8′-methyl-2′H-spiro[cyclohexane-1,3′-imidazo[1,5-a]pyridine]-1′,5′-dione] | 10.2
Cc1cc(Nc2ncnc3c(Cl)cc(Cl)cc23)c(=O)n2c1C(=O)NC21CCCCC1 [Example 110, 6′-[(6,8-Dichloroquinazolin-4-yl)amino]-8′-methyl-2′H-spiro[cyclohexane-1,3′-imidazo[1,5-a]pyridine]-1′,5′-dione] | 5580
Cc1cc(Nc2ncnc3c(F)cccc23)c(=O)n2c1C(=O)NC21CCCCC1 [Example 111, 6′-[(8-Fluoroquinazolin-4-yl)amino]-8′-methyl-2′H-spiro[cyclohexane-1,3′-imidazo[1,5-a]pyridine]-1′,5′-dione] | 517
Cc1cc(Nc2ncnc3cc(F)ccc23)c(=O)n2c1C(=O)NC21CCCCC1 [Example 112, 6′-[(7-Fluoroquinazolin-4-yl)amino]-8′-methyl-2′H-spiro[cyclohexane-1,3′-imidazo[1,5-a]pyridine]-1′,5′-dione] | 25.3

SMILES | IC50 [nM]
Cc1cc(Nc2ncnc3ccc(F)cc23)c(=O)n2c1C(=O)NC21CCCCC1 [Example 113, 6′-[(6-Fluoroquinazolin-4-yl)amino]-8′-methyl-2′H-spiro[cyclohexane-1,3′-imidazo[1,5-a]pyridine]-1′,5′-dione] | 15.4
Cc1cc(Nc2ncnc3cc(F)cc(F)c23)c(=O)n2c1C(=O)NC21CCCCC1 [Example 114, 6′-[(5,7-Difluoroquinazolin-4-yl)amino]-8′-methyl-2′H-spiro[cyclohexane-1,3′-imidazo[1,5-a]pyridine]-1′,5′-dione] | 8.6
Cc1cc(Nc2ncnc3c(F)c(F)ccc23)c(=O)n2c1C(=O)NC21CCCCC1 [Example 115, 6′-[(7,8-Difluoroquinazolin-4-yl)amino]-8′-methyl-2′H-spiro[cyclohexane-1,3′-imidazo[1,5-a]pyridine]-1′,5′-dione] | 208
COc1ccc2c(Nc3cc(C)c4n(c3=O)C3(CCCCC3)NC4=O)ncnc2c1 [Example 116, 6′-[(7-Methoxyquinazolin-4-yl)amino]-8′-methyl-2′H-spiro[cyclohexane-1,3′-imidazo[1,5-a]pyridine]-1′,5′-dione] | 4
COc1ccc2ncnc(Nc3cc(C)c4n(c3=O)C3(CCCCC3)NC4=O)c2c1 [Example 117, 6′-[(6-Methoxyquinazolin-4-yl)amino]-8′-methyl-2′H-spiro[cyclohexane-1,3′-imidazo[1,5-a]pyridine]-1′,5′-dione] | 12.5
COc1cccc2ncnc(Nc3cc(C)c4n(c3=O)C3(CCCCC3)NC4=O)c12 [Example 118, 6′-[(5-Methoxyquinazolin-4-yl)amino]-8′-methyl-2′H-spiro[cyclohexane-1,3′-imidazo[1,5-a]pyridine]-1′,5′-dione] | 66.3
COc1cc2ncnc(Nc3cc(C)c4n(c3=O)C3(CCCCC3)NC4=O)c2cc1OC [Example 119, 6′-[(6,7-Dimethoxyquinazolin-4-yl)amino]-8′-methyl-2′H-spiro[cyclohexane-1,3′-imidazo[1,5-a]pyridine]-1′,5′-dione] | 3
Cc1cc(Nc2ncnc3c(C)cccc23)c(=O)n2c1C(=O)NC21CCCCC1 [Example 120, 8′-methyl-6′-[(8-methylquinazolin-4-yl)amino]-2′H-spiro[cyclohexane-1,3′-imidazo[1,5-a]pyridine]-1′,5′-dione] | > 20000
Cc1ccc2c(Nc3cc(C)c4n(c3=O)C3(CCCCC3)NC4=O)ncnc2c1 [Example 121, 8′-Methyl-6′-[(7-methylquinazolin-4-yl)amino]-2′H-spiro[cyclohexane-1,3′-imidazo[1,5-a]pyridine]-1′,5′-dione] | 7.1
Cc1ccc2ncnc(Nc3cc(C)c4n(c3=O)C3(CCCCC3)NC4=O)c2c1 [Example 122, 8′-Methyl-6′-[(6-methylquinazolin-4-yl)amino]-2′H-spiro[cyclohexane-1,3′-imidazo[1,5-a]pyridine]-1′,5′-dione] | 13.2
Cc1cc(Nc2ncnc3cccc(C)c23)c(=O)n2c1C(=O)NC21CCCCC1 [Example 123, 8′-Methyl-6′-[(5-methylquinazolin-4-yl)amino]-2′H-spiro[cyclohexane-1,3′-imidazo[1,5-a]pyridine]-1′,5′-dione] | 9.7
Cc1cc(Nc2ncnc3ccc(C(F)(F)F)cc23)c(=O)n2c1C(=O)NC21CCCCC1 [Example 124, 8′-Methyl-6′-{[6-(trifluoromethyl)quinazolin-4-yl]amino}-2′H-spiro[cyclohexane-1,3′-imidazo[1,5-a]pyridine]-1′,5′-dione] | 49.9
Cc1cc(Nc2ncnc3c2CNC3)c(=O)n2c1C(=O)NC21CCC(F)(F)CC1 [Example 125, 6′-(6,7-Dihydro-5H-pyrrolo[3,4-d]pyrimidin-4-ylamino)-4,4-difluoro-8′-methyl-2′H-spiro[cyclohexane-1,3′-imidazo[1,5-a]pyridine]-1′,5′-dione] | 46.5
Cc1cc(Nc2ncnc3c2CNC3)c(=O)n2c1C(=O)NC21CCCC1 [Example 126, 6′-(6,7-Dihydro-5H-pyrrolo[3,4-d]pyrimidin-4-ylamino)-8′-methyl-2′H-spiro[cyclopentane-1,3′-imidazo[1,5-a]pyridine]-1′,5′-dione] | 20.3
Cc1cc(Nc2ncnc(N)n2)c(=O)n2c1C(=O)NC21CCC(O)(C(F)(F)F)CC1 (centres unmarked) [Example 127, 6′-[(4-Amino-1,3,5-triazin-2-yl)amino]-4-hydroxy-8′-methyl-4-(trifluoromethyl)-2′H-spiro[cyclohexane-1,3′-imidazo[1,5-a]pyridine]-1′,5′-dione] | 71.2
Cc1cc(Nc2ncnc3[nH]ccc23)c(=O)n2c1C(=O)NC21CCC(O)(C(F)(F)F)CC1 (centres unmarked) [Example 128, 4-Hydroxy-8′-methyl-6′-(7H-pyrrolo[2,3-d]pyrimidin-4-ylamino)-4-(trifluoromethyl)-2′H-spiro[cyclohexane-1,3′-imidazo[1,5-a]pyridine]-1′,5′-dione] | 1
